Numbered stars: 1 amine (or outer) side, 2 acyl side, 3 side chain; on linkers, the order of the positions; unused ones are H or OH. Bridge positions count the residues as written; N and C are the ends. Square brackets hold non-standard residues; d marks the D form. Peptide text beside a SMILES is read from it. * marks the point of attachment. ξ: configuration not given here. Bip = N[CH](Cc1ccc(-c2ccccc2)cc1)C(=O)O; Phe(3-Me) = Cc1cccc(C[C@H](N)C(=O)O)c1; γGlu = O=C(O)[C@H](CCC(=O)[*:2])N[*:1]; Abu(3S-NH2) = C[C@H](N)[C@H](N)C(=O)O; NH(CH2)12COOH = O=C(O)CCCCCCCCCCCCN*; Val(3-OH) = CC(C)(O)[C@H](N)C(=O)O; hArg = N=C(N)NCCCC[C@H](N)C(=O)O; 4Pal = N[CH](Cc1ccncc1)C(=O)O; Cha = N[CH](CC1CCCCC1)C(=O)O; Cit = NC(=O)NCCC[C@H](N)C(=O)O; Thr(3ξ) = CC(O)[C@H](N)C(=O)O; 12Ado = NCCCCCCCCCCCC(=O)O; hSer = N[C@@H](CCO)C(=O)O; Carboxymethyl = O=C(O)C*; Orn = NCCC[CH](N)C(=O)O; Pra = C#CC[C@H](N)C(=O)O; Aun = NCCCCCCCCCCC(=O)O; Dab = NCC[CH](N)C(=O)O; Dap = NC[C@H](N)C(=O)O; AEEA = NCCOCCOCC(=O)O
Target: T1, PD-1/PD-L1 interaction (PE-labeled human PD-L1-Ig binding to Jurkat cell line over-expressing human PD-1) (Homo sapiens, UniProt Q15116)
T1 construct: expressed in transfected cells; host or cells: Jurkat
T1 sequence (Q15116 25-288): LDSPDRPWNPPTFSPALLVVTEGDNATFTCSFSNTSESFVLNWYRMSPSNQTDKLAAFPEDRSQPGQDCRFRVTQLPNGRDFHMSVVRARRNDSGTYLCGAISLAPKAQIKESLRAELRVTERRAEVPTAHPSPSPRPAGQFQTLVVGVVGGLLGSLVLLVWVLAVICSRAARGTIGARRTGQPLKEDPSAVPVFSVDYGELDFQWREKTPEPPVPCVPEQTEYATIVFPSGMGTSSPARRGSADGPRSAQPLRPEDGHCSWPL
Experiment: Jurkat-PD-1 Cell Binding High-Content Screening Assay (CBA)
Type: cell-based
Details: Jurkat cell line over-expressing human PD-1; PE-labeled PD-L1-Ig 20 nM final; read-out: Jurkat hPD1-PDL1 IC50
Method in brief: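 Read-out is high-content imaging of cell-bound phycoerythrin-tagged PD-L1-Ig on fixed, Hoechst-counterstained Jurkat cells that over-express human PD-1. Compound exposure lasts 2 h at 37° C before the labeled ligand (20 nM final) is added for a further hour.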

| IC50 [nM] | Structure (SMILES) |
| --- | --- |
| 34 | Cc1cccc(C[C@@H]2NC(=O)[C@H](CC(=O)O)NC(=O)[C@H](Cc3ccc(OCC(=O)O)cc3)NC(=O)[C@H](CN)NC(=O)CSC[C@@H](C(=O)N[C@@H](CCN)C(=O)NCCOCCOCC(=O)NCCCCCCCCCCC(=O)O)NC(=O)[C@H](C(C)O)NC(=O)[C@H](Cc3ccc(O)cc3)NC(=O)[C@H](CC3CCCCC3)NC(=O)[C@H](CCN)NC(=O)[C@@H](CC(C)C)NC(=O)[C@H](CCCN)NC(=O)[C@H](Cc3ccc(O)cc3)NC(=O)[C@H](Cc3ccc(-c4ccccc4)cc3)NC(=O)[C@H](C(C)C)NC2=O)c1 (stereo partly drawn) [Compound 2577] ({CH2CO}-[Dap]Y(Carboxymethyl)D[Phe(3-Me)]V[Bip]Y[Orn][dL][Dab][Cha]Y[Thr(3ξ)]C[Dab][AEEA][Aun]-OH; thioether N-14) |
| 21.4 | Cc1cccc(C[C@@H]2NC(=O)[C@H](CC(=O)O)NC(=O)[C@H](Cc3ccc(OCC(=O)O)cc3)NC(=O)[C@H](CN)NC(=O)CSC[C@@H](C(=O)N[C@@H](CCN)C(=O)NCCOCCOCC(=O)NCCCCCCCCCCC(=O)O)NC(=O)[C@H](C(C)O)NC(=O)[C@H](C(C)C)NC(=O)[C@H](CC3CCCCC3)NC(=O)[C@H](CCN)NC(=O)[C@@H](CC(C)C)NC(=O)[C@H](CCCN)NC(=O)[C@H](C(C)C)NC(=O)[C@H](Cc3ccc(-c4ccccc4)cc3)NC(=O)[C@H](Cc3ccc(O)cc3)NC2=O)c1 (stereo partly drawn) [Compound 2581] ({CH2CO}-[Dap]Y(Carboxymethyl)D[Phe(3-Me)]Y[Bip]V[Orn][dL][Dab][Cha]V[Thr(3ξ)]C[Dab][AEEA][Aun]-OH; thioether N-14) |
| 30.6 | Cc1cccc(C[C@@H]2NC(=O)[C@H](CC(=O)O)NC(=O)[C@H](Cc3ccc(OCC(=O)O)cc3)NC(=O)[C@H](CN)NC(=O)CSC[C@@H](C(=O)N[C@H](C(=O)NCCCCCCCCCCC(=O)O)[C@H](C)N)NC(=O)[C@H](CO)NC(=O)[C@H](C(C)C)NC(=O)[C@H](CC3CCCCC3)NC(=O)[C@H](CCN)NC(=O)[C@@H](CC(C)C)NC(=O)[C@H](CCCN)NC(=O)[C@H](Cc3ccc(OCC(=O)O)cc3)NC(=O)[C@H](Cc3ccc(-c4ccccc4)cc3)NC(=O)[C@H](Cc3ccc(OCC(=O)O)cc3)NC2=O)c1 [Compound 2172] ({CH2CO}-[Dap]Y(Carboxymethyl)D[Phe(3-Me)]Y(Carboxymethyl)[Bip]Y(Carboxymethyl)[Orn][dL][Dab][Cha]VSC[Abu(3S-NH2)][Aun]-OH; thioether N-14) |
| 23.8 | CC(C)C[C@H]1NC(=O)[C@H](CCCN)NC(=O)[C@H](C(C)C)NC(=O)[C@H](Cc2ccc(-c3ccccc3)cc2)NC(=O)[C@H](C(C)C)NC(=O)[C@H](Cc2c[nH]c3ccccc23)NC(=O)[C@H](CC(=O)O)NC(=O)[C@H](Cc2ccc(OCC(=O)O)cc2)NC(=O)[C@H](CN)NC(=O)CSC[C@@H](C(=O)N[C@@H](CCCCN)C(=O)NCCCCCCCCCCC(=O)O)NC(=O)[C@H](CCCCN)NC(=O)[C@H](C(C)C)NC(=O)[C@H](CC2CCCCC2)NC(=O)[C@H](CCN)NC1=O [Compound 2533] ({CH2CO}-[Dap]Y(Carboxymethyl)DWV[Bip]V[Orn][dL][Dab][Cha]VKCK[Aun]-OH; thioether N-14) |
| 15.1 | Cc1cccc(C[C@@H]2NC(=O)[C@H](CC(=O)O)NC(=O)[C@H](Cc3ccc(OCC(=O)O)cc3)NC(=O)[C@H](CCCCNC(=N)N)NC(=O)CSC[C@@H](C(=O)N[C@@H](CCCN)C(=O)N[C@@H](CCO)C(=O)NCCCCCCCCCCCC(=O)O)NC(=O)[C@H](C(C)O)NC(=O)[C@H](C(C)C)NC(=O)[C@H](CC3CCCCC3)NC(=O)[C@H](CCN)NC(=O)[C@@H](CC(C)C)NC(=O)[C@H](CCCN)NC(=O)[C@H](CCCNC(N)=O)NC(=O)[C@H](Cc3ccc(-c4ccccc4)cc3)NC(=O)[C@H](C(C)C)NC2=O)c1 (stereo partly drawn) [Compound 3568] ({CH2CO}-[hArg]Y(Carboxymethyl)D[Phe(3-Me)]V[Bip][Cit][Orn][dL][Dab][Cha]V[Thr(3ξ)]C[Orn][hSer][12Ado]-OH; thioether N-14) |
| 65.5 | CC(C)C[C@H]1NC(=O)[C@H](CCCN)NC(=O)[C@H](C(C)C)NC(=O)[C@H](Cc2ccc(-c3ccccc3)cc2)NC(=O)[C@H](C(C)C)NC(=O)[C@H](Cc2c[nH]c3ccccc23)NC(=O)[C@H](CC(=O)O)NC(=O)[C@H](Cc2c[nH]cn2)NC(=O)[C@H](CCCCNC(=N)N)NC(=O)CSC[C@@H](C(=O)N[C@@H](CCN)C(=O)NCCCCCCCCCCC(=O)O)NC(=O)[C@H](CCN)NC(=O)[C@H](C(C)C)NC(=O)[C@H](CC2CCCCC2)NC(=O)[C@H](CCN)NC1=O [Compound 3269] ({CH2CO}-[hArg]HDWV[Bip]V[Orn][dL][Dab][Cha]V[Dab]C[Dab][Aun]-OH; thioether N-14) |
| 39.7 | CC(=O)NCCCC[C@@H]1NC(=O)[C@H](Cc2ccc(-c3ccccc3)cc2)NC(=O)[C@H](Cc2ccc(O)cc2)NC(=O)[C@H](Cc2cccc(C)c2)NC(=O)[C@H](CC(=O)O)NC(=O)[C@H](Cc2ccc(OCC(=O)O)cc2)NC(=O)[C@H](CCCNC(=N)N)NC(=O)CSC[C@@H](C(=O)N[C@@H](CCN)C(=O)NCCCCCCCCCCC(=O)O)NC(=O)[C@H](C(C)O)NC(=O)[C@H](CO)NC(=O)[C@H](CC2CCCCC2)NC(=O)[C@H](CCN)NC(=O)[C@@H](CC(C)C)NC(=O)[C@H](CCCN)NC1=O (stereo partly drawn) [Compound 3507] ({CH2CO}-RY(Carboxymethyl)D[Phe(3-Me)]Y[Bip]K(Ac)[Orn][dL][Dab][Cha]S[Thr(3ξ)]C[Dab][Aun]-OH; thioether N-14) |
| 17.7 | Cc1cccc(C[C@@H]2NC(=O)[C@H](CC(=O)O)NC(=O)[C@H](Cc3ccc(OCC(=O)O)cc3)NC(=O)[C@H](C(C)O)NC(=O)CSC[C@@H](C(=O)N[C@@H](CCN)C(=O)NCCOCCOCC(=O)N[C@@H](CCC(=O)NCCOCCOCC(=O)NCCCCCCCCCCCCC(=O)O)C(=O)O)NC(=O)[C@H](CO)NC(=O)[C@H](C(C)(C)O)NC(=O)[C@H](CC3CCCCC3)NC(=O)[C@H](CCN)NC(=O)[C@@H](CC(C)C)NC(=O)[C@H](CCCN)NC(=O)[C@H](Cc3ccc(OCC(=O)O)cc3)NC(=O)[C@H](Cc3ccc(-c4ccccc4)cc3)NC(=O)[C@H](Cc3ccc(OCC(=O)O)cc3)NC2=O)c1 (stereo partly drawn) [Compound 3906] ({CH2CO}-[Thr(3ξ)]Y(Carboxymethyl)D[Phe(3-Me)]Y(Carboxymethyl)[Bip]Y(Carboxymethyl)[Orn][dL][Dab][Cha][Val(3-OH)]SC[Dab][AEEA][γGlu][AEEA]-{NH(CH2)12COOH}; thioether N-14) |
| 39.2 | CCC(C)C1NC(=O)C(Cc2ccc(-c3ccccc3)cc2)NC(=O)C(CC(C)C)NC(=O)C(Cc2c[nH]c3ccccc23)NC(=O)C(CC(=O)O)NC(=O)C(Cc2ccc(OCC(=O)O)cc2)NC(=O)C(Cc2ccncc2)NC(=O)CSCC(C(=O)NCCOCCOCC(=O)NC(CCCN)C(=O)NCCCCCCCCCCC(=O)O)NC(=O)C(C(C)O)NC(=O)C(C(C)C)NC(=O)C(CC2CCCCC2)NC(=O)C(CCN)NC(=O)C(CC(C)C)NC(=O)C(CCCN)NC1=O (stereo not shown) [Compound 3089] ({CH2CO}-[4Pal]Y(Carboxymethyl)DWL[Bip]I[Orn]L[Dab][Cha]VTC[AEEA][Orn][Aun]-OH; thioether N-14; configuration not given here) |
| 9.6 | C#CC[C@H](NC(=O)COCCOCCNC(=O)[C@H](CCN)NC(=O)[C@@H]1CSCC(=O)N[C@@H](Cc2ccncc2)C(=O)N[C@@H](Cc2ccc(OCC(=O)O)cc2)C(=O)N[C@@H](CC(=O)O)C(=O)N[C@@H](Cc2c[nH]c3ccccc23)C(=O)N[C@@H](C(C)C)C(=O)N[C@@H](Cc2ccc(-c3ccccc3)cc2)C(=O)N[C@@H]([C@@H](C)CC)C(=O)N[C@@H](CCCN)C(=O)N[C@H](CC(C)C)C(=O)N[C@@H](CCN)C(=O)N[C@@H](CC(C)C)C(=O)N[C@@H](C(C)C)C(=O)N[C@@H]([C@@H](C)O)C(=O)N1)C(=O)N[C@@H](CCCCN)C(=O)NCCCCCCCCCCC(=O)O [Compound 1196] ({CH2CO}-[4Pal]Y(Carboxymethyl)DWV[Bip]I[Orn][dL][Dab]LVTC[Dab][AEEA][Pra]K[Aun]-OH; thioether N-14) |
| 20.9 | Cc1cccc(C[C@@H]2NC(=O)[C@H](CC(=O)O)NC(=O)[C@H](Cc3ccc(OCC(=O)O)cc3)NC(=O)[C@H](CCN)NC(=O)CSC[C@@H](C(=O)N[C@@H](CCN)C(=O)N[C@@H](CO)C(=O)NCCCCCCCCCCCC(=O)O)NC(=O)[C@H](CCCN)NC(=O)[C@H](C(C)O)NC(=O)[C@H](CC3CCCCC3)NC(=O)[C@H](CCN)NC(=O)[C@@H](CC(C)C)NC(=O)[C@H](CCCN)NC(=O)[C@H](Cc3ccc(OCC(=O)O)cc3)NC(=O)[C@H](Cc3ccc(-c4ccccc4)cc3)NC(=O)[C@H](Cc3ccc(OCC(=O)O)cc3)NC2=O)c1 (stereo partly drawn) [Compound 3636] ({CH2CO}-[Dab]Y(Carboxymethyl)D[Phe(3-Me)]Y(Carboxymethyl)[Bip]Y(Carboxymethyl)[Orn][dL][Dab][Cha][Thr(3ξ)][Orn]C[Dab]S[12Ado]-OH; thioether N-14) |
| 21 | CC[C@H](C)[C@@H]1NC(=O)[C@H](Cc2ccc(-c3ccccc3)cc2)NC(=O)[C@H](C(C)C)NC(=O)[C@H](Cc2c[nH]c3ccccc23)NC(=O)[C@H](CC(=O)O)NC(=O)[C@H](Cc2ccc(OCC(=O)O)cc2)NC(=O)[C@H](Cc2ccncc2)NC(=O)CSC[C@@H](C(=O)N[C@@H](CCCCN)C(=O)NCCOCCOCC(=O)NCCCCCCCCCCC(=O)O)NC(=O)[C@H]([C@@H](C)O)NC(=O)[C@H](C(C)C)NC(=O)[C@H](CC(C)C)NC(=O)[C@H](CCN)NC(=O)[C@@H](CC(C)C)NC(=O)[C@H](CCCN)NC1=O [Compound 1160] ({CH2CO}-[4Pal]Y(Carboxymethyl)DWV[Bip]I[Orn][dL][Dab]LVTCK[AEEA][Aun]-OH; thioether N-14) |
| 15.1 | Cc1cccc(C[C@@H]2NC(=O)[C@H](CC(=O)O)NC(=O)[C@H](Cc3ccc(OCC(=O)O)cc3)NC(=O)[C@H](CCCNC(=N)N)NC(=O)CSC[C@@H](C(=O)N[C@@H](CCN)C(=O)NCCCCCCCCCCC(=O)O)NC(=O)[C@H](C(C)O)NC(=O)[C@H](C(C)C)NC(=O)[C@H](CC3CCCCC3)NC(=O)[C@H](CCN)NC(=O)[C@@H](CC(C)C)NC(=O)[C@H](CCCN)NC(=O)[C@H](CCCN)NC(=O)[C@H](Cc3ccc(-c4ccccc4)cc3)NC(=O)[C@H](C(C)C)NC2=O)c1 (stereo partly drawn) [Compound 3303] ({CH2CO}-RY(Carboxymethyl)D[Phe(3-Me)]V[Bip][Orn][Orn][dL][Dab][Cha]V[Thr(3ξ)]C[Dab][Aun]-OH; thioether N-14) |
